Measurements from patent US10947188B2, “Small molecule ferroptosis inducers” (THE TRUSTEES OF COLUMBIA UNIVERSITY IN THE CITY OF NEW YORK, priority 2016, dated 2021).

Test system: HT-1080
Assay: Modulatory profiling: Alamar Blue viability, lethal compound cotreated with death modulator (EC50, AUC); on AUC HT.BHA: reference of the scale not given here; on AUC HT.EGTA: reference of the scale not given here
Assay type: cell-based
Set-up: AUC, modulator HT.3MA / AUC, modulator HT.ALLN / AUC HT.ATA / AUC HT.ActD / AUC HT.BHA / AUC HT.BHT / AUC HT.BocD / AUC HT.CHX / AUC HT.Co2+ / AUC HT.DPQ / AUC HT.EGTA / AUC HT.Lmim / AUC HT.NAD+ / AUC HT.Nec-1 / AUC HT.SP600125 / AUC HT.TLCK / AUC HT.U0126: unit not given beside the values
Conditions: for AUC HT.ATA: HT-1080, modulator ATA; for AUC HT.ActD: HT-1080, modulator ActD; for AUC HT.BHA: HT-1080, modulator BHA; for AUC HT.BHT: HT-1080, modulator BHT; for AUC HT.BocD: HT-1080, modulator BocD; for AUC HT.CHX: HT-1080, modulator CHX; for AUC HT.Co2+: HT-1080, modulator Co2+; for AUC HT.CspA: HT-1080, modulator CspA; for AUC HT.DPQ: HT-1080, modulator DPQ; for AUC HT.EGTA: HT-1080, modulator EGTA; for AUC HT.Gd3+: HT-1080, modulator Gd3+; for AUC HT.LNAME: HT-1080, modulator LNAME; for AUC HT.Lmim: HT-1080, modulator Lmim; for AUC HT.NAD+: HT-1080, modulator NAD+; for AUC HT.NMMA: HT-1080, modulator NMMA; for AUC HT.Nec-1: HT-1080, modulator Nec-1; for AUC HT.Pepstatin: HT-1080, modulator Pepstatin; for AUC HT.SP600125: HT-1080, modulator SP600125; for AUC HT.TLCK: HT-1080, modulator TLCK; for AUC HT.U0126: HT-1080, modulator U0126; for HT.atoc (AUC) / HT.bCarotene (AUC) / HT.deferox (AUC) / HT.digoxin (AUC) / HT.trolox (AUC) / HT.zVAD (AUC): HT-1080; for HT.atoc (AUC): modulator atoc; for HT.bCarotene (AUC): modulator bCarotene; for HT.deferox (AUC): modulator deferox; for HT.digoxin (AUC): modulator digoxin; for HT.trolox (AUC): modulator trolox; for HT.zVAD (AUC): modulator zVAD; for AUC, modulator HT.3MA / AUC, modulator HT.ALLN: HT-1080 cells, modulatory profile value (AUC); for AUC, modulator HT.3MA: lethal compound cotreated with modulator 3MA; for AUC, modulator HT.ALLN: lethal compound cotreated with modulator ALLN

| SMILES | AUC HT.ATA | AUC HT.ActD | AUC HT.BHA | AUC HT.BHT | AUC HT.BocD | AUC HT.CHX | AUC HT.Co2+ | AUC HT.CspA | AUC HT.DPQ | AUC HT.EGTA | AUC HT.Gd3+ | AUC HT.LNAME | AUC HT.Lmim | AUC HT.NAD+ | AUC HT.NMMA | HT.atoc (AUC) | HT.bCarotene (AUC) | HT.deferox (AUC) | HT.digoxin (AUC) | HT.trolox (AUC) | other results |
| --- | --- | --- | --- | --- | --- | --- | --- | --- | --- | --- | --- | --- | --- | --- | --- | --- | --- | --- | --- | --- | --- |
| COc1cc([C@@H]2c3cc4c(cc3[C@@H](O[C@@H]3O[C@@H]5CO[C@@H](C)O[C@H]5[C@H](O)[C@H]3O)[C@H]3COC(=O)[C@H]23)OCO4)cc(OC)c1O [Etoposide] | −0.0363 | −0.09944 | 0.04757 | −0.0005481 | 0.05886 | 0.113 | 0.3926 | −0.177 | 0.006422 | 0.02457 | 0.02668 | 0.005444 | 0.05001 | 0.0527 | 0.01603 | −0.006276 | 0.00393 | 0.1428 | 0.1311 | 0.01328 | AUC HT.Nec-1: −0.005949; AUC HT.Pepstatin: −0.001737; AUC HT.SP600125: 0.00478; AUC HT.TLCK: 0.1489; AUC HT.U0126: −0.02627; HT.zVAD (AUC): 0.03817; AUC, modulator HT.3MA: 0.007208; AUC, modulator HT.ALLN: 0.03277 |
| CCCCNc1c(Cl)cnn(-c2ccccc2)c1=O [CIL36] | 0.05274 | −0.04409 | 0.0054 | −0.1272 | 0.002169 | −0.06645 | 0.02821 | 0.01593 | 0.05193 | −0.01311 | −0.04267 | −0.02799 | 0.004214 | −0.06378 | −0.009501 | 0.08942 | −0.005276 | 0.06452 | −0.03557 | 0.002425 | HT.zVAD (AUC): −0.003588; AUC, modulator HT.3MA: 0.08327; AUC, modulator HT.ALLN: 0.1422 |
| CC[C@]1(O)C[C@@H]2CN(CCc3c([nH]c4ccccc34)[C@@](C(=O)OC)(c3cc4c(cc3OC)N(C)[C@H]3[C@@](O)(C(=O)OC)[C@H](OC(C)=O)[C@]5(CC)C=CCN6CC[C@]43[C@@H]65)C2)C1 [Vinbiastine] | 0.09963 | 0.05584 | −0.01651 | 0.01379 | 0.1256 | 0.06309 | 0.2269 | −0.1335 | 0.003688 | 0.01055 | −0.002557 | −0.01231 | 0.126 | 0.1682 | −0.003516 | 0.1573 | 0.001945 | 0.2847 | 0.1245 | −0.001959 | AUC HT.Nec-1: −0.005874; AUC HT.Pepstatin: −0.0004474; AUC HT.SP600125: 0.002862; AUC HT.TLCK: 0.002362; AUC HT.U0126: 0.1372; HT.zVAD (AUC): 0.08924; AUC, modulator HT.3MA: 0.05249; AUC, modulator HT.ALLN: 0.1527 |
| COc1ccc(-n2nnnc2S(=O)(=O)CC(=O)N2CCCCC2)cc1 [CIL48] | 0.04684 | 0.01673 | −0.06966 | −0.1547 | −0.03823 | 0.0148 | 0.0307 | 0.002689 | −0.0003728 | 0.01715 | −0.003556 | −0.04087 | −0.01757 | −0.05465 | −0.01902 | 0.09021 | −0.00845 | 0.1268 | −0.01513 | −0.02612 | HT.zVAD (AUC): −0.005053; AUC, modulator HT.3MA: 0.0854; AUC, modulator HT.ALLN: 0.1611 |
| COc1ccc(N(C(=O)CCl)C(C(=O)NCCc2ccccc2)c2cccs2)cc1 (stereo not shown) [DPI4] | −0.03622 | −0.006831 | 0.285 | 0.2486 | −0.01407 | −0.008699 | 0.1741 | 5.8801E−05 | 0.05528 | 0.0361 | −0.02121 | 0.01547 | 0.3086 | 0.02441 | −0.0007723 | 0.3523 | −0.01264 | 0.4095 | −0.06343 | 0.3151 | AUC HT.Nec-1: 0.05135; AUC HT.Pepstatin: −0.003295; AUC HT.SP600125: −0.04284; AUC HT.TLCK: 0.1761; AUC HT.U0126: 0.3423; HT.zVAD (AUC): −0.04451; AUC, modulator HT.3MA: −0.001458; AUC, modulator HT.ALLN: −0.1648 |
| O=c1c(Cl)c(Cl)cnn1-c1ccc(Cl)c(C(F)(F)F)c1 [CIL25] | 0.06489 | −0.03585 | −0.01547 | −0.1041 | 0.05183 | −0.01604 | −0.06128 | 0.01073 | 0.02629 | 0.01624 | 0.01713 | 0.02663 | 0.01684 | −0.03051 | −0.006639 | 0.04405 | 0.009082 | 0.07763 | −0.007149 | −0.02562 | HT.zVAD (AUC): 0.03342; AUC, modulator HT.3MA: 0.01605; AUC, modulator HT.ALLN: −0.0257 |
| O=C(CCCCCN1C(=O)c2cccc3cccc(c23)C1=O)NO [Scriptaid] | −0.03873 | −0.1632 | −0.05883 | −0.103 | 0.02828 | −0.1048 | −0.1939 | −0.1413 | −0.00813 | −0.01767 | −0.02176 | −0.002637 | −0.05583 | 0.01064 | 0.008869 | −0.009331 | −0.01872 | −0.1469 | −0.08793 | −0.02986 | AUC HT.Nec-1: −0.05617; AUC HT.Pepstatin: −0.01296; AUC HT.SP600125: −0.07; AUC HT.TLCK: −0.05575; AUC HT.U0126: −0.04228; HT.zVAD (AUC): 0.02988; AUC, modulator HT.3MA: −0.1244; AUC, modulator HT.ALLN: −0.1403 |
